Results taken from paper PMC5769128, “Human UDP-Glucuronosyltransferase 2B4 and 2B7 Are Responsible for Naftopidil Glucuronidation in Vitro” (Frontiers in Pharmacology, 2018).

Assays:
[1] = system: human kidney microsomes (HKM); assay: Kinetics of NAF enantiomer glucuronidation by human kidney microsomes; assay type: in vitro ADME
Procedure: (§1) All glucuronidation assays were conducted in an incubation volume of 200 μL. Incubations were performed at 37°C in 50 mM Tris–HCl buffer (pH 7.5) with 10 mM magnesium chloride, 1 mg protein/mL of enzyme (microsomes and recombinant human UGTs), alamethicin (100 μg of alamethicin/mg microsomal protein), and NAF enantiomers (2.5–80 μM). The reaction was initiated by the addition of UDPGA (5 mM) and incubated at 37°C in a shaking water bath for 45 min. The reaction was terminated by the addition of 200 μL of ice-cold acetonitrile containing the IS (1 μM) and then centrifuged at 5000 ×g for 10 min at 4°C. The supernatant fraction was injected into the RRLC-MS/MS apparatus. Protein concentration (0.5–2 mg/mL) and incubation time (15–180 min) were optimized in preliminary studies to be within initial linear rate conditions.
(§2) Kinetic parameters were assessed in the HLM, RLM, HKM, RKM, and recombinant human UGTs (UGT2B4, 2B7, and 1A9).

[2] = as above; assay type: in vitro ADME; settings: human, human kidney microsomes, pH 7.5; NAF glucuronidation by HKM
Procedure: as §1, §2

[3] = target: T1, recombinant human UGT1A10 (Homo sapiens, UniProt Q9HAW8); assay: UGT reaction screening of NAF enantiomers, UGT1A10; settings: 10 μM substrate, 45 min
T1 sequence (Q9HAW8 26-530): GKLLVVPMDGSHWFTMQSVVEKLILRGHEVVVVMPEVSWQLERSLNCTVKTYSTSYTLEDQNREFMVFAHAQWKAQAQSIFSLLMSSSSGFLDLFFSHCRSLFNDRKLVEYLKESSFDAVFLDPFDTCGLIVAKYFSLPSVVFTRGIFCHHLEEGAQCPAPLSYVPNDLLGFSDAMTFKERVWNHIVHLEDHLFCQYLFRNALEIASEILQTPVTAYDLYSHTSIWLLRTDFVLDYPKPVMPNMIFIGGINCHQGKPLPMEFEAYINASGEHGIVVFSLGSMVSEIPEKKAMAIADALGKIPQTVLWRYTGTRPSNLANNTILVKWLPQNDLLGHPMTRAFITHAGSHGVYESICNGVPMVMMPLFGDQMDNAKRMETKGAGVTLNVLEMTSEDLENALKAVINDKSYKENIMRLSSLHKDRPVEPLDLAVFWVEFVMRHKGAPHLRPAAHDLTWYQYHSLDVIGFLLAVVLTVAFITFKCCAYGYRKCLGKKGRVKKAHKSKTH

UGT1A7 = target: T2, UGT1A7 (Homo sapiens, UniProt Q9HAW7); assay: Inhibition screening of recombinant UGTs by NAF enantiomers, UGT1A7 (4-MU); assay type: in vitro ADME; settings: recombinant UGT1A7, probe 4-MU, 100 μM NAF enantiomer, read-out: Inhibition of 4-MU-G formation
T2 construct: purchased BD Gentest
T2 sequence (Q9HAW7 26-530): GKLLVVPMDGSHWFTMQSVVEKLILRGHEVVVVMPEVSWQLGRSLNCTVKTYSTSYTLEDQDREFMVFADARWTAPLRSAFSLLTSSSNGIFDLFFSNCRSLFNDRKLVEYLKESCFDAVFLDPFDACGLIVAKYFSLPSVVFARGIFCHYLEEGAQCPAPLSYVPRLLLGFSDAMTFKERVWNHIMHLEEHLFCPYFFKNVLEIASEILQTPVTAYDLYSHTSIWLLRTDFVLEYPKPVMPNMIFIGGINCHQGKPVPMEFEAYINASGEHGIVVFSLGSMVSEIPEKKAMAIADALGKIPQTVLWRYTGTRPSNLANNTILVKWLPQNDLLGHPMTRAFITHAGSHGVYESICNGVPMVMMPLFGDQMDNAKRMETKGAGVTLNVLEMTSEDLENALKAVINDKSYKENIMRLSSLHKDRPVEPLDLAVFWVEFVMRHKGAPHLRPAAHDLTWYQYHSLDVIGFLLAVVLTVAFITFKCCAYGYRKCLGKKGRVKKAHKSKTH
Procedure: The inhibition screening study was performed by investigating the 12 recombinant UGTs with 10 and 100 μM NAF enantiomer. […] 4-MU, as a non-specific substrate, was added to the other incubated samples. Instead of NAF enantiomers, the same volume of water was added to be the control sample. […] The formation of 4-MU-G and TFP-G produced from the 12 incubation system were analyzed by HPLC. The instrument parameters for the LC were as follows: system, Agilent 1260; Agilent Eclipse Plus C18 (2.1 mm × 50 mm, 1.8 μm, Santa Clara, CA, United States); mobile phase, methanol: 0.1% formic acid in water (0–3 min, 35:65; 3.1–4.5 min, 65:35; 4.6–5 min, 35:65); flow rate, 0.4 mL/min; column temperature, 25°C; and injection volume, 2 μL. The retention times of 4-MU, 4-MU-G, TFP, TFP-G, and MU (IS) were 1.5, 0.5, 2.2, 1.8, and 1.0 min, respectively.

recombinant human UGT2B4 = target: T3, recombinant human UGT2B4 (Homo sapiens, UniProt P06133); assay: Kinetics of NAF enantiomer glucuronidation by recombinant UGT2B4; assay type: in vitro ADME
T3 construct: purchased BD Gentest
T3 sequence (P06133 24-528): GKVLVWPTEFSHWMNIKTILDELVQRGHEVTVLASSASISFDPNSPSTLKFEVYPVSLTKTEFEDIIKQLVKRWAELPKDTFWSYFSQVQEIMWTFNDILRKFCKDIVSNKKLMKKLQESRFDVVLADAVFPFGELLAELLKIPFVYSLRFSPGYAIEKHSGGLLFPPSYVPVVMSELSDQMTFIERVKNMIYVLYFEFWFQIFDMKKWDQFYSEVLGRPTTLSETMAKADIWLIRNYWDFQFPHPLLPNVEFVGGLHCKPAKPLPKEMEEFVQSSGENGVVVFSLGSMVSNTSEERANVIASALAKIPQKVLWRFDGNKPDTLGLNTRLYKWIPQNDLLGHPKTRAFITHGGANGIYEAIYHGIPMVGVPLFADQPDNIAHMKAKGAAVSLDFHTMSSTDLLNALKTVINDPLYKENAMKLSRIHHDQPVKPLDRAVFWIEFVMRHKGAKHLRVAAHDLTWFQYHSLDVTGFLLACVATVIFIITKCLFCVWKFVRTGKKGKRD
Procedure: as §1, §2

[4] = Kinetics of NAF enantiomer glucuronidation by human liver microsomes; assay type: in vitro ADME; settings: human, human liver microsomes, pH 7.5; NAF glucuronidation by HLM; 2.5–80 μM substrate, 45 min
Procedure: as §1, §2

[5] = system: human liver microsomes (HLM); assay: as above; assay type: in vitro ADME
Procedure: as §1, §2

| Structure (SMILES) | Kinetics type [1] | Km at 45 min [2] [µM] | Glucuronide formation by UGT1A10 [3] | inhibition at 100 μM (UGT1A7) [%] | Kinetics type (recombinant human UGT2B4) | Km at 45 min [4] [µM] | Kinetics type [5] |
| --- | --- | --- | --- | --- | --- | --- | --- |
| COc1ccccc1N1CCN(C[C@H](O)COc2cccc3ccccc23)CC1 [S(-)-NAF] | substrate inhibition model | 35 | no activity | > 75 | substrate inhibition model | 19 | Michaelis–Menten model |
| COc1ccccc1N1CCN(C[C@@H](O)COc2cccc3ccccc23)CC1 [R(+)-NAF] | Michaelis–Menten model | 40 | No R(+)-NAF-G was detected | > 75 | substrate inhibition model | 48 | Michaelis–Menten model |
